Values quoted from earlier work in PubChem BioAssay AID1259409 (Chemical Carcinogenesis Research Information System (CCRIS), 2018).

Test system: rodent chemically induced tumor inhibition, incidence and multiplicity
Experiment: CCRIS tumor inhibitor studies
Conditions: Route [Inhibitor]: ORAL, Species: RAT, Promoter: NONE USED

CC1=C(/C=C/C(C)=C/C=C/C(C)=C/C=C2C(=O)CC(C)(C)CC2=O)C(C)(C)CCC1
tumour outcome (control, treated, inhibition, significance) (Carcinogen: L-AZASERINE, 115-02-6, Dose [Inhibitor]: 1 MMOL/KG DIET DAILY FOR 365 D STARTING 1 WK AFTER COMPLETION OF CARCINOGEN TREATMENT (STUDY DURATION: 66 WK), Strain/Sex: WISTAR-LEWIS/FEMALE, Target Tissue: Type of Lesion: PANCREAS: ADENOMA, Dose [Carcinogen]: 10 MG/KG BW 1/WK FOR 15 WK): 50%, 33%, 34%, not significant | tumour outcome (control, treated, inhibition, significance) (Carcinogen: L-AZASERINE, 115-02-6, Dose [Inhibitor]: 1 MMOL/KG DIET DAILY FOR 365 D STARTING 1 WK AFTER COMPLETION OF CARCINOGEN TREATMENT (STUDY DURATION: 66 WK), Strain/Sex: WISTAR-LEWIS/FEMALE, Target Tissue: Type of Lesion: PANCREAS: CARCINOMA IN SITU, Dose [Carcinogen]: 10 MG/KG BW 1/WK FOR 15 WK): 8%, 21%, -163%, not calculated | tumour outcome (control, treated, inhibition, significance) (Carcinogen: L-AZASERINE, 115-02-6, Dose [Inhibitor]: 1 MMOL/KG DIET DAILY FOR 365 D STARTING 1 WK AFTER COMPLETION OF CARCINOGEN TREATMENT (STUDY DURATION: 66 WK), Strain/Sex: WISTAR-LEWIS/FEMALE, Target Tissue: Type of Lesion: PANCREAS: CARCINOMA, Dose [Carcinogen]: 10 MG/KG BW 1/WK FOR 15 WK): 13%, 4%, 69%, not significant | tumour outcome (control, treated, inhibition, significance) (Carcinogen: L-AZASERINE, 115-02-6, Dose [Inhibitor]: 1 MMOL/KG DIET DAILY FOR 365 D STARTING 1 WK AFTER COMPLETION OF CARCINOGEN TREATMENT (STUDY DURATION: 66 WK), Strain/Sex: WISTAR-LEWIS/FEMALE, Target Tissue: Type of Lesion: PANCREAS: NEOPLASM, Dose [Carcinogen]: 10 MG/KG BW 1/WK FOR 15 WK): 71%, 58%, 18%, not significant | tumour outcome (control, treated, inhibition, significance) (Carcinogen: L-AZASERINE, 115-02-6, Dose [Inhibitor]: 1 MMOL/KG DIET DAILY FOR 365 D STARTING 1 WK AFTER COMPLETION OF CARCINOGEN TREATMENT (STUDY DURATION: 66 WK), Strain/Sex: WISTAR-LEWIS/MALE, Target Tissue: Type of Lesion: PANCREAS: ADENOMA, Dose [Carcinogen]: 10 MG/KG BW 1/WK FOR 15 WK): 25%, 12%, 52%, not significant | tumour outcome (control, treated, inhibition, significance) (Carcinogen: L-AZASERINE, 115-02-6, Dose [Inhibitor]: 1 MMOL/KG DIET DAILY FOR 365 D STARTING 1 WK AFTER COMPLETION OF CARCINOGEN TREATMENT (STUDY DURATION: 66 WK), Strain/Sex: WISTAR-LEWIS/MALE, Target Tissue: Type of Lesion: PANCREAS: CARCINOMA IN SITU, Dose [Carcinogen]: 10 MG/KG BW 1/WK FOR 15 WK): 29%, 56%, -93%, not significant | tumour outcome (control, treated, inhibition, significance) (Carcinogen: L-AZASERINE, 115-02-6, Dose [Inhibitor]: 1 MMOL/KG DIET DAILY FOR 365 D STARTING 1 WK AFTER COMPLETION OF CARCINOGEN TREATMENT (STUDY DURATION: 66 WK), Strain/Sex: WISTAR-LEWIS/MALE, Target Tissue: Type of Lesion: PANCREAS: CARCINOMA, Dose [Carcinogen]: 10 MG/KG BW 1/WK FOR 15 WK): 46%, 16%, 65%, p<0.05 | tumour outcome (control, treated, inhibition, significance) (Carcinogen: L-AZASERINE, 115-02-6, Dose [Inhibitor]: 1 MMOL/KG DIET DAILY FOR 365 D STARTING 1 WK AFTER COMPLETION OF CARCINOGEN TREATMENT (STUDY DURATION: 66 WK), Strain/Sex: WISTAR-LEWIS/MALE, Target Tissue: Type of Lesion: PANCREAS: NEOPLASM, Dose [Carcinogen]: 10 MG/KG BW 1/WK FOR 15 WK): 100%, 84%, 16%, not significant | tumour outcome (control, treated, inhibition, significance) (Carcinogen: L-AZASERINE, 115-02-6, Dose [Inhibitor]: 2 MMOL/KG DIET DAILY FOR 330 D STARTING 1 WK AFTER COMPLETION OF CARCINOGEN TREATMENT (STUDY DURATION: 66 WK), Strain/Sex: WISTAR-LEWIS/FEMALE, Target Tissue: Type of Lesion: PANCREAS: ADENOMA, Dose [Carcinogen]: 10 MG/KG BW 1/WK FOR 15 WK): 50%, 33%, 34%, not significant | tumour outcome (control, treated, inhibition, significance) (Carcinogen: L-AZASERINE, 115-02-6, Dose [Inhibitor]: 2 MMOL/KG DIET DAILY FOR 330 D STARTING 1 WK AFTER COMPLETION OF CARCINOGEN TREATMENT (STUDY DURATION: 66 WK), Strain/Sex: WISTAR-LEWIS/FEMALE, Target Tissue: Type of Lesion: PANCREAS: CARCINOMA IN SITU, Dose [Carcinogen]: 10 MG/KG BW 1/WK FOR 15 WK): 8%, 17%, -113%, not calculated | tumour outcome (control, treated, inhibition, significance) (Carcinogen: L-AZASERINE, 115-02-6, Dose [Inhibitor]: 2 MMOL/KG DIET DAILY FOR 330 D STARTING 1 WK AFTER COMPLETION OF CARCINOGEN TREATMENT (STUDY DURATION: 66 WK), Strain/Sex: WISTAR-LEWIS/FEMALE, Target Tissue: Type of Lesion: PANCREAS: CARCINOMA, Dose [Carcinogen]: 10 MG/KG BW 1/WK FOR 15 WK): 13%, 0%, 100%, not significant | tumour outcome (control, treated, inhibition, significance) (Carcinogen: L-AZASERINE, 115-02-6, Dose [Inhibitor]: 2 MMOL/KG DIET DAILY FOR 330 D STARTING 1 WK AFTER COMPLETION OF CARCINOGEN TREATMENT (STUDY DURATION: 66 WK), Strain/Sex: WISTAR-LEWIS/FEMALE, Target Tissue: Type of Lesion: PANCREAS: NEOPLASM, Dose [Carcinogen]: 10 MG/KG BW 1/WK FOR 15 WK): 71%, 50%, 30%, p 0.14 | tumour outcome (control, treated, inhibition, significance) (Carcinogen: L-AZASERINE, 115-02-6, Dose [Inhibitor]: 2 MMOL/KG DIET DAILY FOR 330 D STARTING 1 WK AFTER COMPLETION OF CARCINOGEN TREATMENT (STUDY DURATION: 66 WK), Strain/Sex: WISTAR-LEWIS/MALE, Target Tissue: Type of Lesion: PANCREAS: ADENOMA, Dose [Carcinogen]: 10 MG/KG BW 1/WK FOR 15 WK): 25%, 40%, -60%, not significant | tumour outcome (control, treated, inhibition, significance) (Carcinogen: L-AZASERINE, 115-02-6, Dose [Inhibitor]: 2 MMOL/KG DIET DAILY FOR 330 D STARTING 1 WK AFTER COMPLETION OF CARCINOGEN TREATMENT (STUDY DURATION: 66 WK), Strain/Sex: WISTAR-LEWIS/MALE, Target Tissue: Type of Lesion: PANCREAS: CARCINOMA IN SITU, Dose [Carcinogen]: 10 MG/KG BW 1/WK FOR 15 WK): 29%, 44%, -52%, not significant | tumour outcome (control, treated, inhibition, significance) (Carcinogen: L-AZASERINE, 115-02-6, Dose [Inhibitor]: 2 MMOL/KG DIET DAILY FOR 330 D STARTING 1 WK AFTER COMPLETION OF CARCINOGEN TREATMENT (STUDY DURATION: 66 WK), Strain/Sex: WISTAR-LEWIS/MALE, Target Tissue: Type of Lesion: PANCREAS: CARCINOMA, Dose [Carcinogen]: 10 MG/KG BW 1/WK FOR 15 WK): 46%, 0%, 100%, p<0.05 | tumour outcome (control, treated, inhibition, significance) (Carcinogen: L-AZASERINE, 115-02-6, Dose [Inhibitor]: 2 MMOL/KG DIET DAILY FOR 330 D STARTING 1 WK AFTER COMPLETION OF CARCINOGEN TREATMENT (STUDY DURATION: 66 WK), Strain/Sex: WISTAR-LEWIS/MALE, Target Tissue: Type of Lesion: PANCREAS: NEOPLASM, Dose [Carcinogen]: 10 MG/KG BW 1/WK FOR 15 WK): 100%, 84%, 16%, not significant | tumour outcome (control, treated, inhibition, significance) (Carcinogen: N-METHYL-N-NITROSOUREA, 684-93-5, Dose [Inhibitor]: 406 MG/KG DIET DAILY FOR 24 WK STARTING 5 D AFTER LAST CARCINOGEN DOSE (STUDY DURATION: 32 WK), Strain/Sex: F344/MALE, Target Tissue: Type of Lesion: COLON: SARCOMA, Dose [Carcinogen]: 0.5 MG 2/WK FOR 8 WK): 5/40 (13%), 3/40 (8%), 38%, not calculated | tumour outcome (control, treated, inhibition, significance) (Carcinogen: N-METHYL-N-NITROSOUREA, 684-93-5, Dose [Inhibitor]: 406 MG/KG DIET DAILY FOR 24 WK STARTING 5 D AFTER LAST CARCINOGEN DOSE (STUDY DURATION: 32 WK), Strain/Sex: F344/MALE, Target Tissue: Type of Lesion: COLON: TUMOR, Dose [Carcinogen]: 0.5 MG 2/WK FOR 8 WK): 60%, 75%, -25%, not significant | tumour outcome (control, treated, inhibition, significance) (Carcinogen: N-METHYL-N-NITROSOUREA, 684-93-5, Dose [Inhibitor]: 406 MG/KG DIET DAILY FOR 38 WK STARTING 5 D AFTER LAST CARCINOGEN DOSE (STUDY DURATION: 44 WK), Strain/Sex: F344/MALE, Target Tissue: Type of Lesion: COLON: TUMOR, Dose [Carcinogen]: 0.5 MG 2/WK FOR 6 WK): 62%, 49%, 21%, not significant | tumour outcome (control, treated, inhibition, significance) (Carcinogen: N-METHYL-N-NITROSOUREA, 684-93-5, Dose [Inhibitor]: 406 MG/KG DIET DAILY FOR 48 WK STARTING 5 D AFTER LAST CARCINOGEN DOSE (STUDY DURATION: 52 WK), Strain/Sex: F344/MALE, Target Tissue: Type of Lesion: COLON: TUMOR, Dose [Carcinogen]: 0.5 MG 2/WK FOR 4 WK): 31%, 35%, -13%, not significant
